*1 amine or outer side, *2 acyl side, *3 side chain or, on linkers, in order; H or OH if unused. Where a SMILES comes first, the peptide text is derived from it. [ ]: non-standard residue; d: D form. The star is where a group is joined. Phe(3,4-(OMe)2) = COc1ccc(C[C@H](N)C(=O)O)cc1OC; Lys(Et,iPr) = CCN(CCCC[C@H](N)C(=O)O)C(C)C; X2 = O=C(C(N[*:1])[C@@H](O)c1ccccc1)[*:2]; Lys(Et2) = CCN(CC)CCCC[C@H](N)C(=O)O; Lys(Me2) = CN(C)CCCC[C@H](N)C(=O)O; X1 = O=C(c1ccoc1)*
Tests used:
[1] = target: CBX5 chromodomain (wild type) (Homo sapiens, UniProt P45973); experiment: ITC binding to wild-type CBX5 chromodomain; details: for fold tighter binding of CBX5 than to UNC6212 (Kme2): wild-type CBX5, relative to UNC6212
[2] = target: H3K9me3 peptide (Homo sapiens) (UniProt P68431); details: cited from earlier work

Kd [1] [µM] | fold tighter binding than HP1 with H3K9me3 ([1]; CBX5 with UNC6212 vs HP1 with H3K9me3) | fold more potent than histone tail peptides H3K9me3 and H3K9me2 ([1]; KD for CBX5, ligand vs H3K9me3 and H3K9me2) | fold tighter binding of CBX5 than to UNC6212 (Kme2) [1] | Compound | Kd [2] [µM]
5.7 | about 2.5 fold | about 5 fold | – | COc1ccc(C[C@H](NC(=O)[C@H](C)NC(=O)C(NC(=O)c2ccoc2)[C@@H](O)c2ccccc2)C(=O)N[C@@H](CCCCN(C)C)C(=O)N[C@@H](CO)C(N)=O)cc1OC (stereo partly drawn) [UNC6212, N-((7S,10S,13S,17S)-7-(((S)-1-amino-3-hydroxy-1-oxopropan-2-yl)carbamoyl)-10-(3,4-dimethoxybenzyl)-17-hydroxy-2,13-dimethyl-9,12,15-trioxo-17-phenyl-2,8,11,14-tetraazaheptadecan-16-yl)furan-3-carboxamide] (X1-[X2]A[Phe(3,4-(OMe)2)][Lys(Me2)]S-NH2) | –
– | – | – | about 2 fold | CCN(CC)CCCC[C@H](NC(=O)[C@H](Cc1ccc(OC)c(OC)c1)NC(=O)[C@H](C)NC(=O)C(NC(=O)c1ccoc1)[C@@H](O)c1ccccc1)C(=O)N[C@@H](CO)C(N)=O (stereo partly drawn) [UNC6349, N-((8S,11S,14S,18S)-8-(((S)-1-amino-3-hydroxy-1-oxopropan-2-yl)carbamoyl)-11-(3,4-dimethoxybenzyl)-3-ethyl-18-hydroxy-14-methyl-10,13,16-trioxo-18-phenyl-3,9,12,15-tetraazaoctadecan-17-yl)furan-3-carboxamide] (X1-[X2]A[Phe(3,4-(OMe)2)][Lys(Et2)]S-NH2) | –
3.3 | – | – | about 2 fold | CCN(CCCC[C@H](NC(=O)[C@H](Cc1ccc(OC)c(OC)c1)NC(=O)[C@H](C)NC(=O)C(NC(=O)c1ccoc1)[C@@H](O)c1ccccc1)C(=O)N[C@@H](CO)C(N)=O)C(C)C (stereo partly drawn) [UNC6864, N-((8S,11S,14S,18S)-8-(((S)-1-amino-3-hydroxy-1-oxopropan-2-yl)carbamoyl)-11-(3,4-dimethoxybenzyl)-3-ethyl-18-hydroxy-2,14-dimethyl-10,13,16-trioxo-18-phenyl-3,9,12,15-tetraazaoctadecan-17-yl)furan-3-carboxamide] (X1-[X2]A[Phe(3,4-(OMe)2)][Lys(Et,iPr)]S-NH2) | –
– | – | – | – | CBX5 (from UniProt P45973) | 30
